In data set [1] the test system is MCF7 (breast cancer) cancer cells. Briefly: MCF7 growth inhibition, MTS test. As to conditions: 48 hours. The data set is classed as cell-based. The method, then: Growth inhibition of MCF7 (breast cancer) cancer cells is tested on MCF7 cells in culture for 48 hours in contact with the gold-FAD-PEG particle with or without a targeting agent obtained by the IN method. […] (Promega—Cell Titer Proliferation Assay).
In general terms: Formazan colour is commonly taken as a measure of viable cells.

The test system of data set [2] is HT22 cells (murine brain tumour). Briefly: HT22 growth inhibition, MTS test. The data set is classed as cell-based. As for the experimental part:
HT22 cells (murine brain tumour) are tested with the gold-FAD-PEG particle obtained by the IN method.

The subject of data set [3] is MIA Paca-2 cells. Briefly: MIA Paca-2 MTT viability test. The following applies: 120 μM/L, 2 hours. Type of data set: cell-based, human. As for the experimental part: (§1) MIA Paca-2 cells are human pancreatic cancer cells [American Tissue Cell Culture (ATCC, Manassas, Va., USA)] cultured in DMEM medium. The MTT viability test is performed at a cell density of 0.1×10*6 cells/mL. The tested products are incubated for 2 hours at a concentration of 120 μM/L and in triplicate, with culture control (ref: Blank) (100%) and a positive DMSO control (5%). Under these conditions, cell viability is 34% in the presence of FAD alone, 6% with FAD-PEG.

The subject of data set [4] is MiaPaCA2 pancreatic cancer. Briefly: Viability of MiaPaCA2 cells (Example 14). The data set is classed as cell-based.
Data set [5] deals with cancer cells in culture. The experiment in a line: Growth inhibition of cancer cells in culture. The data set is classed as cell-based. As to conditions: read-out: inhibitory concentration (IC50) reducing growth of cancer cells in culture by 50%.
Data set [6] relates to DNA aptamer. Briefly: Intercalation in DNA aptamer grafted on gold nanoparticles. Type of data set: binding. As to conditions: 5 mg/ml, UV visible and RAMAN. The text has this:
Small molecules with aromatic structures are intercalated into DNA, which is the case of some extremely powerful and effective drugs. The hypothesis that FAD intercalates into DNA has been tested using a DNA aptamer grafted onto the surface of nanoparticles (NP).
The aptamer used is a single-stranded, thiolated DNA sequence of formula 5′HS-TT TTTTTTTTTTTTTTCTTCTCTAGCTGAATAACCGGAAGTAACTCATCGTTTCGATGAGTTACTTCCGGTTATTCAGCTAGAGAAG 3′, grafted to the surface of gold nanoparticles in the presence of a catalyst agent (N-[3-(dimethylamino) propyl]-N′-ethylcarbodiimide/N-hydroxysuccinimide, Sigma-Aldrich) (EDC/NHS), 50 μL, of DNA with a ratio (40 mg/10 mg) to 5 ml of gold NP solution, to allow activation of the carboxylic group (PEG-COOH) on the surface of the nanoparticles for immobilisation of the aptamer by covalent bonds. The bond is made between the carboxyl group of the EDC/NHS-activated PEG and the NH2 groups of the aptamer.
The grafting of the DNA on the surface of the gold nanoparticles is verified by UV spectroscopy (UV-visible absorbance measurements).
The particles were then placed in the presence of FAD or FAG-PEG (5 mg/ml, two formulations) and DNA intercalation, detected and measured by two techniques: UV visible and by RAMAN spectroscopy.

Data set [7] deals with Monocytes isolated from peripheral blood (PBMC). Briefly: Viability of non-cancerous peripheral blood monocytes (PBMC). Type of data set: cell-based.
In data set [8] the test system is HT-1080 fibrosarcoma cells. The experiment in a line: Viability of HT-1080 cells. Type of data set: cell-based. As to conditions: Homo sapiens.
The test system of data set [9] is murine breast cancer cell line 4T1. The experiment in a line: 4T1 breast cancer model in mice. Type of data set: in vivo, BALB/c mice. The following applies: compared to control groups.
Data set [10] is described as follows: MIA Paca-2 MTT viability test. The following applies: human, MIA Paca-2 cells, read-out: cell viability. Type of data set: cell-based, human. As for the experimental part: as §1
The test system of data set [11] is HepG2 hepatocellular carcinoma. Briefly: Viability of HepG2 cells. Type of data set: cell-based. As to conditions: Homo sapiens.
The nature of data set [12]: Resistance to hydrolysis in serum. As to conditions: 20 hours. The data set is classed as in vitro ADME. As for the experimental part: A comparative hydrolysis test of unbound FAD and micrometer-sized FAD-PEG obtained in Example 7 is performed in serum to test resistance to enzymes.
Data set [13] has as its system Nucleo PyroPhosphatase enzyme. Briefly: Protection of FAD against Nucleo PyroPhosphatase hydrolysis (HPLC). As to conditions: 25° C. Type of data set: in vitro ADME. As for the experimental part:
FAD protection in particles in comparison with unbound FAD is studied. Different particles containing FAD are compared to unbound FAD: • The FAD encapsulated with a gold FAD-PEG particle ON is obtained by the ON method described in example 2. • The FAD encapsulated with a gold-FAD-PEG particle IN is obtained by the IN method obtained in example 1. The different particles and the unbound FAD are each placed in a solution of the Nucleo PyroPhosphatase enzyme at 25° C. The concentration of the FAD is monitored over time by HPLC assay.

Data set [14] deals with Huh-7replicon. The experiment in a line: Viability of Huh-7replicon cells. The data set is classed as cell-based.
Data set [15] has as its system Mouse HEP 1-6 liver cancer cells. The experiment in a line: HEP 1-6 liver cancer model in mice. Type of data set: in vivo.
Data set [16] has as its system CEM (myeloid leukaemia) cells. Briefly: Viability of CEM myeloid leukaemia cells. The data set is classed as cell-based. The following applies: 48 hours incubation; read-out: mean IC50, viability of cancer cells in the lineage.

pIC50: −log10 of the molar value.

Turning to `CN[C@@H]1C[C@H]2O[C@@](C)([C@@H]1OC)n1c3ccccc3c3c4c(c5c6ccccc6n2c5c31)C(=O)NC4` [staurosporin, reference compound], the GI50 was roughly 40000 nM in data set [1] and 2700 nM in [2] (read-out: 50% growth inhibition (GI 50), 48 hours, MTS).
As usually defined, the cell viability is the share of living cells, or the viability signal relative to a control. In turn, `C[S+](C)[O-]` [DMSO, reference compound] registered a cell viability in [3] of 5%.
The term viability denotes a read-out of living cells in per cent, often relative to untreated cells. For the compound `Cc1cc2nc3c(=O)[nH]c(=O)nc-3n(CC(O)C(O)C(O)COP(=O)(O)OP(=O)(O)OC[C@H]3O[C@@H](n4cnc5c(N)ncnc54)C(O)C3O)c2cc1C` (stereo partly drawn) [FAD, Flavin Adenine Dinucleotide], the “viability of the cells” value in data set [4] (90 μM, 24 hours of exposure) was “significantly altered”. The pIC50 is 5.00 in [4] (Homo sapiens, MIA PaCa-2, MiaPaCA2); 5.30 to 6.30 in data set [5]; less than 4.00 in data set [7] (48 hours incubation, read-out: IC50, viability of primary non-cancerous cells); 5.74 to 5.96 in data set [8]; 5.80 in [2] (Mus musculus, HT-22, Example 14, read-out: IC50, viability of HT22 neuronal cancer cells); 5.74 to 5.96 in data set [11]. The pIC50 in data set [14] is 5.74 to 5.96; in [16], 5.80. Besides, the DNA intercalation entry in data set [6] is “intercalates to DNA”. The compound further displayed a GI50 in data set [7] (normal blood monocytes PBM cells) greater than 100000 nM. The IL-10 content entry in [9] is listed as “significantly increased”. For the same compound, the “level of IL-1α” value in data set [9] is “significantly reduced”. Moreover, the “level of IL-1 β” value in data set [9] is listed as “significantly reduced”. For the same compound, the “level of IL-6” value in [9] is reported as “significantly reduced”. The “level of IL-12P70” value in [9] is “significantly reduced”. Further, the “level of TNF α” value in data set [9] was “significantly reduced”. Further, the viability at 2 hours, 120 μM/L in [10] was 34%. Also, the hydrolysis in serum entry in data set [12] is listed as “almost completely hydrolyzed”. Also, in data set [13], the “time to full hydrolysis of FAD” value was no more than 15 min. In addition, the “reduction in tumour volume” value in data set [15] is 24%.
